We go through three molecules from patent US9416130B2, “4-(8-methoxy-1-((1-methoxypropan-2-yl)-2-(tetrahydro-2H-pyran-4-yl)-1 H-imidazo[4,5-C]quinolin-7-yl)-3,5-dimethylisoxazole and its use as bromodomain inhibitor” (GlaxoSmithKline LLC, priority 2011, dated 2016).

Where two headings read alike, the source gives them in different places. Bounds are passed on as bounds.

For test [1], the system named is LPS induced IL-6 secretion from whole blood. Put plainly: LPS induced IL-6 secretion from whole blood. The format is cell-based. The conditions noted are these: LPS 200 ng/ml, 24 hours, IL-6 immunoassay. Here is the method:
Measurement of LPS Induced IL-6 Secretion from Whole Blood
Activation of monocytic cells by agonists of toll-like receptors such as bacterial lipopolysaccharide (LPS) results in production of key inflammatory mediators including IL-6. Such pathways are widely considered to be central to the pathophysiology of a range of auto-immune and inflammatory disorders.
Compounds to be tested are diluted to give a range of appropriate concentrations of which 1 μl of the diluted stocks is added to a 96 well plate. Following addition of whole blood (130 ul) the plates are incubated at 37 degrees (5% CO2) for 30 min before the addition of 10 μl of 2.8 ug/ml LPS, diluted in complete RPMI 1640 (final concentration=200 ng/ml), to give a total volume of 140 μl per well. After further incubation for 24 hours at 37 degrees, 140 μl of PBS are added to each well. The plates are sealed, shaken for 10 minutes and then centrifuged (2500 rpm×10 min). 100 μl of the supernatant are removed and IL-6 levels assayed by immunoassay (typically by MesoScale Discovery technology) either immediately or following storage at −20 degrees. Concentration response curves for each compound was generated from the data and an IC50 value was calculated

The test system of test [2] is Small cell lung cancer (SCLC) cell lines. Put plainly: Oncology cell growth assay (384-well, CellTiter-Glo). Type of test: cell-based. The conditions noted are these: Homo sapiens. Here is the method:
(§1) Oncology Cell Growth Assay
(§2) Human cell lines (n=80 comprising cell lines described in Table 2 below) were cultured in RPMI-1640 containing 10% fetal bovine serum, 1000 viable cells per well were plated in 384-well black flat bottom polystyrene plates (Greiner #781086) in 48 μl of culture media. All plates were placed at 5% CO2, 37° C. overnight. The following day one plate was harvested with CellTiter-Glo (CTG, Promega #G7573) for a time equal to 0 (T0) measurement and compound (20 point titration from 14.7 uM to 7 pM) was added to the remaining plates. The final concentration of DMSO in all wells was 0.15%. Cells were incubated for 72 hours or the indicated time and each plate was developed with CellTiter-Glo reagent using a volume equivalent to the cell culture volume in the wells. Plates were shaken for approximately 2 minutes and chemiluminescent signal was read on the Analyst GT (Molecular Devices) or EnVision Plate Reader (Perkin Elmer).
(§3) Results are expressed as a percent of the T0 and plotted against the compound concentration. The T0 value was normalized to 100% and represents the number of cells at time of compound addition and the concentration response data were fit with a 4 parameter curve fit using XLfit software (model 205). The concentration that inhibited cell growth by 50% (gIC50) is the midpoint of the ‘growth window’ (between the T0 and DMSO control). The Ymin−T0 value is determined by subtracting the T0 value (100%) from the Ymin value (%) determined from the fit of the concentration response curve. Values from the wells with no cells were subtracted from all samples for background correction.
In general terms: In ATP-based viability assays light output follows the ATP content of the culture.

The subject of the next test is Esophageal cell lines. The test is described as above. The format is cell-based. The conditions noted are these: Homo sapiens. Here is the method:
as §1, §2, §3

The subject of test [3] is Cervical cancer cell lines. Described as above. Type of test: cell-based. The conditions noted are these: Homo sapiens; range over 4 cervical cancer cell lines; read-out: gIC50. The procedure:
as §1, §2, §3

In the next test the test system is Neuroblastoma cell lines. The description is as above. The format is cell-based. The conditions noted are these: Homo sapiens. The procedure:
as §1, §2, §3

Test [4] has as its system NUT-midline carcinoma cell lines. Described as above. The conditions noted are these: Homo sapiens; range over 2 NUT-midline carcinoma cell lines; read-out: gIC50. Type of test: cell-based. Here is the method:
as §1, §2, §3

Test [5] concerns Multiple myeloma cell lines. Described as above. The format is cell-based, Human. The procedure: as §1, §2, §3
Another test has as its system LPS-induced serum IL-6. Put plainly: In vivo mouse model to demonstrate modulation of pro-inflammatory response (i.v. LPS). Also on record: species or system Male CD1 mice. The conditions noted are these: for reduced maximum (Cmax) IL-6 levels / reduced total exposures (AUC) of IL-6: 1 h before i.v. LPS 100 μg/kg, mouse. The procedure:
Male CD1 mice (25-30 g, n=4 per group) received a single i.v. bolus injection of LPS (100 μg/kg) via the tail vein 1 h after pre-treatment with a single oral administration of either vehicle (1% (w/v) methylcellulose in sterile water) or the test compound (3, 10 and 30 mg/kg). Serial blood samples were obtained from the tail vein by direct venepuncture at various time points up to 5 h post-LPS administration for analysis of IL-6 and the test compound concentrations by Meso Scale Discovery (MSD) analysis and LC-MS/MS respectively.

Test [6] concerns Burkitt's lymphoma cell lines. Put plainly: Oncology cell growth assay (analogous procedure, 96 well plates). The conditions noted are these: Homo sapiens, Burkitts lymphoma cell, range over 3 Burkitt's lymphoma lines, read-out: gIC50. The format is cell-based. Here is the method: as §2, §3
(§4) The compound of Example 2 was also tested in accordance with an analogous procedure using 96 well plates along with appropriate modifications to volumes and concentrations that would be apparent to those skilled in the art.

Test [7] has as its system Acute monocytic leukemia cell line. The test is described as above. The format is cell-based. The conditions noted are these: Homo sapiens, 1 acute monocytic leukemia line, read-out: gIC50. The procedure:
as §2, §3, §4

Test [8] has as its system Breast cancer (ductal) cell line. The test is described as above. The conditions noted are these: Homo sapiens, 1 breast cancer (ductal) line, read-out: gIC50. The format is cell-based. The procedure: as §2, §3, §4
Test [9] deals with Cutaneous T cell lymphoma cell line. Described as above. The format is cell-based. The conditions noted are these: Homo sapiens, 1 cutaneous T cell lymphoma line, read-out: gIC50. Here is the method:
as §2, §3, §4

Test [10] concerns Ovarian carcinoma cell line. Described as above. The conditions noted are these: Homo sapiens, 1 ovarian carcinoma line, read-out: gIC50. Type of test: cell-based. The procedure: as §2, §3, §4
Test [11] has as its system Acute promyelocytic leukemia cell line. The description is as above. The format is cell-based. The conditions noted are these: Homo sapiens, 1 acute promyelocytic leukemia line, read-out: gIC50. Here is the method: as §2, §3, §4
The subject of test [12] is Chronic myeloid leukemia cell line. The test is described as above. The format is cell-based. The conditions noted are these: Homo sapiens, 1 chronic myeloid leukemia line, read-out: gIC50. Here is the method:
as §2, §3, §4

[13] abbreviates: positive control, maximal reduction observed, mouse LPS model.

As to `COCC(C)n1c(C2CCOCC2)nc2cnc3cc(-c4c(C)noc4C)c(OC)cc3c21` (centres unmarked) [Example 1, 4-(8-methoxy-1-(1-methoxypropan-2-yl)-2-(tetrahydro-2H-pyran-4-yl)-1H-imidazo[4,5-c]quinolin-7-yl)-3,5-dimethylisoxazole], the IC50 in test [1] was 100 to 1000 nM.
On to `COC[C@@H](C)n1c(C2CCOCC2)nc2cnc3cc(-c4c(C)noc4C)c(OC)cc3c21` [Example 2, 4-(8-methoxy-1-((R)-1-methoxypropan-2-yl)-2-(tetrahydro-2H-pyran-4-yl)-1H-imidazo[4,5-c]quinolin-7-yl)-3,5-dimethylisoxazole], for which the IC50 in test [1] was 100 to 1000 nM; in test [2] (median of 38 SCLC cell lines, read-out: gIC50 (median)), 538 nM; in test [2] (range for 35 of the 38 SCLC cell lines, read-out: gIC50), 76 to 2500 nM; in [2] (range over 38 SCLC cell lines, 72 hours, read-out: gIC50), at least 76 nM; with Esophageal cell lines (median of 8 esophageal cell lines, read-out: gIC50 (median)) it was 759 nM; in the test on Esophageal cell lines (range over 8 esophageal cell lines, read-out: gIC50), 208 to 1540 nM. The IC50 is 266 to 847 nM in test [3]; 193 nM in the test with Neuroblastoma cell lines (median of 12 neuroblastoma cell lines, read-out: gIC50 (median)); 25 to 435 nM in the test with Neuroblastoma cell lines (range over 12 neuroblastoma cell lines, read-out: gIC50); 59 to 66 nM in [4]; 414 nM in test [5] (Homo sapiens, median of 16 multiple myeloma cell lines, read-out: gIC50 (median)); at least 1.1 nM in [5] (Homo sapiens, range over 16 multiple myeloma cell lines, 72 hours, read-out: gIC50). The IC50 in test [5] (range for 15 out of 16 multiple myeloma cell lines, read-out: gIC50) is 1.1 to 2000 nM; in test [6], 181 to 807 nM; in [7], 123 nM; in [8] it was 537 nM; in [9], 162 nM; in test [10], 707 nM. Further, the IC50 is 141 nM in test [11] and 776 nM in [12]. The “reduced maximum (Cmax) IL-6 levels” value turned out to be 46% in the test with LPS-induced serum IL-6 (3 mg/kg single oral), 79% with LPS-induced serum IL-6 (10 mg/kg single oral) and 73% in the test with LPS-induced serum IL-6 (30 mg/kg single oral). The “reduced total exposures (AUC) of IL-6” value with LPS-induced serum IL-6 (3 mg/kg single oral) amounted to 35%; with LPS-induced serum IL-6 (10 mg/kg single oral), 70%; in the test with LPS-induced serum IL-6 (30 mg/kg single oral) it was 63%.
As for `C[C@@H]1C[C@H]2[C@@H]3CCC4=CC(=O)C=C[C@]4(C)[C@@]3(F)[C@@H](O)C[C@]2(C)[C@@]1(O)C(=O)CO` [dexamethasone, reference compound], in the test on LPS-induced serum IL-6 (setting [13]), the “reduction in IL-6 AUC” value is given as 70% and the “reduction in IL-6 Cmax” value came to 73%.
